The test system of one data set is collagen arthritis model. Nature of the data set: Collagen arthritis model. In kind it is in vivo, Male DBA mice. To be noted: administered prior to or at the start of arthritis; 2 to 40 μmol kg−1; vs vehicle. As for the experimental part: The data are obtained using the collagen arthritis model. Male DBA mice (18-22 g) are subcutaneously injected at the tail base with bovine type II collagen (100 μL) on day 1 and day 21. Onset of arthritis occurs over the next 5 days. Treatments are typically selected from A) a mixture of a Compound such as Compound 2 (between 2 to 40 μmol kg^−1) and the vehicle which is typically 1% citratic acid in water or similar. The effect of treatment on arthritis is monitored daily by assessing body weight, paw thickness and qualitative evidence of arthritis (scored from 0 to 3, 0=no evidence of arthritis or inflammation, 3=frank swelling of the paw). At the end of qualitative assessment, animals are sacrificed for toxicological, histological and pathological analysis.

Data set [1] in a line: Exposure by LCMS analysis of organs. In kind it is in vivo, bALBc mice. As for the experimental part:
(§1) To determine the potential for toxic effects of compound 2 in higher animals, compound 2 was administered to bALBc mice orally as a suspension up to a dose of 400 μmole/kg/day for 7 days.
Exposure to the compound was confirmed using LCMS analysis of organs. […] A mild increase in Compound 2 concentration relative the average bodily dose in liver and spleen is clear after 2 h. In kidney the increase appears later, after 24 h.

The next data set relates to Jurkat lymphocytes. Nature of the data set: In vitro toxicity: growth inhibition of Jurkat lymphocytes, Alamar Blue. Particulars: DMEM medium. In kind it is cell-based. Here is the method: (§2) Various analogs were compared in vitro to determine key properties. Antibacterial effect was determined in representative Gram negative (E. coli) and positive (S. aureus) organisms using the method of example 16. Effects on lung inflammation were compared using the method of example 32. BALF (Bronchoalveolar Lavage Fluid) TNFa levels are determined by ELISA. In vitro toxicity is determined by growth inhibition of Jurkat lymphocytes in DMEM medium as determined using Alamar Blue reaction. Effects on cytokine production are determined in J774 cells stimulated with either LPS (0.1 μg/mL) or medium from J774 cells stimulated for 24 h with 0.2 μg/mL LPS. Cytokines are determined by ELISA and expressed as % DMSO control at 50 μM inhibitor concentration.
(In general: Alamar Blue is a resazurin reagent that responds to reducing activity.)

Another data set concerns HepG2. Nature of the data set: Cytotoxicity of the substances (TC50), HepG2. The class given is cell-based. On the set-up: unit not given beside the values. Particulars: HepG2 cells.
Data set [2] concerns TNFa production in J774 cells. Nature of the data set: Cytokine production in stimulated J774 cells, TNFa (ELISA). The class given is cell-based. Particulars: Normal (LPS 0.1 μg/mL). As for the experimental part:
as §2
In general terms: In an ELISA, binding on a coated surface is turned into a signal by an enzyme label.

Another data set concerns Jurkat. Nature of the data set: Cytotoxicity of the substances (TC50), Jurkat. The class given is cell-based. Particulars: Jurkat cells.
The nature of data set [3]: Toxicity on oral administration for 7 days. In kind it is in vivo. To be noted: orally as a suspension up to 400 μmole/kg/day for 7 days. Here is the method: as §1
For data set [4], the system named is GM_CSF production in J774 cells. The experiment in a line: Cytokine production in stimulated J774 cells, GM-CSF (ELISA). Particulars: Cond. (medium from J774 cells stimulated 24 h with 0.2 μg/mL LPS). In kind it is cell-based. As for the experimental part:
as §2

Another data set concerns plasma TNFalpha. Nature of the data set: Liver inflammation induced by LPS, plasma TNFalpha. In kind it is in vivo, Lewis rats. Particulars: 10 or 50 mg/kg; LPS 4 mg/kg i.p.; relative to vehicle treated controls. As for the experimental part: FIG. 12. Plasma TNFa production in Lewis rats in which liver damage is induced via injection of LPS (4 mg/kg), data are the mean of N=8 and are plotted with the 95% confidence interval.
Application of high doses of LPS, e.g. 4 mg/kg i.p. results in the induction of liver inflammation and necrosis. This is reflected in signs such as elevated plasma TNFalpha levels. […] Data are recorded in FIG. 12.

The subject of another data set is S. aureus. The experiment in a line: Antibiotic dilution assay, S. aureus. The class given is cell-based. To be noted: Staphylococcus aureus; liquid medium, OD600; read-out: Bacterial IC 50 (μM) S. Aureus. As for the experimental part:
(§3) The antibiotic activity of the compounds was determined via antibiotic dilution assay. After filling 100 μl growth medium into all the wells of a 96 well plate, the compounds were diluted from 1 mM to 0.010 μM. The growth control wells contained growth medium instead of inhibitory agents. The inhibitory control contained Compound 3 (200 μM). Suspensions of E. coli and B. pumilus in growth medium with an approximate OD600 of 0.03-0.04 were added to the diluted compounds, incubated for 6-8 hours on the shaker at 750 rpm and 37° C. until the growth control had reached an OD600 of about 0.6-0.8. The OD600 was then determined on a standard plate reader.
as §2

The next data set relates to DSS induced colitis. Nature of the data set: Dextransulfate (DSS) model of inflammatory bowel disease. In kind it is in vivo, female C57BLK6 mice. Particulars: DSS 2.5% W/V in drinking water; relative to known compounds such as sulfasalazine. The text has this: Dextransulfate (DSS) is used to induce an inflammatory state in the gut of mice by providing it in the drinking water. In our model, DSS (ICN) was used at 2.5% W/V in drinking water for female C57BLK6 mice (ca. 20 g). Weight was monitored daily as were diarrhea, overall condition and occult blood. Depending on severity, animals were recovered at 5, 7 or 12 days after onset of DSS treatment, and colon and intestine material recovered for histological examination.

In data set [5] the test system is IL-12 production in J774 cells. The experiment in a line: Cytokine production in stimulated J774 cells, IL-12 (ELISA). The class given is cell-based. Particulars: Normal (LPS 0.1 μg/mL). Here is the method: as §2
A further data set in a line: Ames test (mutagenicity). The class given is cell-based. Particulars: up to 800 μg/plate (approx. 70 μM); absence and presence of metabolically active liver extract. Here is the method: The Ames test is well known in the art. To determine the mutagenic potential of compound 2, it was conducted up to a concentration of 800 μg/plate (approx. 70 μM, considering 20 ml medium in a petri dish).
On the technique in general: The Ames test uses bacterial strains that need an amino acid and regain growth without it when mutated back.

For the next data set, the system named is BALF TNFa. The experiment in a line: Airway inflammation by inhaled LPS, BALF TNFa by ELISA. The class given is in vivo, DBA or Swiss female mice. Particulars: 20 μmol/kg i.n., 30 minutes prior to LPS challenge. As for the experimental part: as §2
Airway inflammation is induced by inhalation of solutions containing bacterial LPS. 10 μg per mouse is provided intranasally in phosphate buffered saline. 90 minutes after challenge, bronchioalveolar lavage fluid is recovered from the lung using PBS (0.5 mL) injected into the lung via the trachea and frozen prior to analysis for cytokines by ELISA. TNFa is the primary cytokine measured. Compound 2 and other test substances are dissolved in 0.02% citric acid in water, and the pH of the resulting solution is set to 6.2. Compounds are administered 30 minutes prior to challenge either as 25 μL solutions for intranasal use, or as 125 μL volumes for p.o. application in 25 g DBA or Swiss female mice. The results of said interventions include reduction of lung and/or plasma cytokines. Example data are recorded in FIG. 13.

In the next data set the test system is E. coli. Nature of the data set: Antibiotic dilution assay, E. coli. In kind it is cell-based. Particulars: Escherichia coli; liquid medium, OD600; read-out: Bacterial IC 50 (μM) E. Coli. As for the experimental part:
as §3, §2

Another data set addresses T1, hERG (Homo sapiens, UniProt Q12809).
T1 construct: expressed in transfected cells; host or cells: Chinese hamster ovary (CHO) cells
The experiment in a line: hERG inhibition in Chinese hamster ovary cells expressing the hERG c-DNA (K+ currents). The class given is cell-based. To be noted: CHO cells expressing hERG. Here is the method: A major drawback of macrocycles is the inhibition of cardiac ion channels and specifically the channel encoded by the hERG gene inhibition of which is associated with “long Q-T” syndrome in some patients. To determine risk of hERG inhibition, Compounds 2 and 3 were incubated with Chinese hamster ovary cells expressing the hERG c-DNA resulting in detectable K+ currents associated with hERG at the cell surface.

The next data set concerns HeLa. The experiment in a line: Cytotoxicity of the substances (TC50), HeLa. In kind it is cell-based. To be noted: HeLa cells.
The subject of data set [6] is IL-10 production in J774 cells. Nature of the data set: Cytokine production in stimulated J774 cells, IL-10 (ELISA). In kind it is cell-based. Particulars: Normal (LPS 0.1 μg/mL). Here is the method: as §2
For a further data set, the system named is bacteria. Particulars: relative to azithromycin; cited from earlier work.

Each structure is given as a SMILES string.

T1 sequence (Q12809 whole entry): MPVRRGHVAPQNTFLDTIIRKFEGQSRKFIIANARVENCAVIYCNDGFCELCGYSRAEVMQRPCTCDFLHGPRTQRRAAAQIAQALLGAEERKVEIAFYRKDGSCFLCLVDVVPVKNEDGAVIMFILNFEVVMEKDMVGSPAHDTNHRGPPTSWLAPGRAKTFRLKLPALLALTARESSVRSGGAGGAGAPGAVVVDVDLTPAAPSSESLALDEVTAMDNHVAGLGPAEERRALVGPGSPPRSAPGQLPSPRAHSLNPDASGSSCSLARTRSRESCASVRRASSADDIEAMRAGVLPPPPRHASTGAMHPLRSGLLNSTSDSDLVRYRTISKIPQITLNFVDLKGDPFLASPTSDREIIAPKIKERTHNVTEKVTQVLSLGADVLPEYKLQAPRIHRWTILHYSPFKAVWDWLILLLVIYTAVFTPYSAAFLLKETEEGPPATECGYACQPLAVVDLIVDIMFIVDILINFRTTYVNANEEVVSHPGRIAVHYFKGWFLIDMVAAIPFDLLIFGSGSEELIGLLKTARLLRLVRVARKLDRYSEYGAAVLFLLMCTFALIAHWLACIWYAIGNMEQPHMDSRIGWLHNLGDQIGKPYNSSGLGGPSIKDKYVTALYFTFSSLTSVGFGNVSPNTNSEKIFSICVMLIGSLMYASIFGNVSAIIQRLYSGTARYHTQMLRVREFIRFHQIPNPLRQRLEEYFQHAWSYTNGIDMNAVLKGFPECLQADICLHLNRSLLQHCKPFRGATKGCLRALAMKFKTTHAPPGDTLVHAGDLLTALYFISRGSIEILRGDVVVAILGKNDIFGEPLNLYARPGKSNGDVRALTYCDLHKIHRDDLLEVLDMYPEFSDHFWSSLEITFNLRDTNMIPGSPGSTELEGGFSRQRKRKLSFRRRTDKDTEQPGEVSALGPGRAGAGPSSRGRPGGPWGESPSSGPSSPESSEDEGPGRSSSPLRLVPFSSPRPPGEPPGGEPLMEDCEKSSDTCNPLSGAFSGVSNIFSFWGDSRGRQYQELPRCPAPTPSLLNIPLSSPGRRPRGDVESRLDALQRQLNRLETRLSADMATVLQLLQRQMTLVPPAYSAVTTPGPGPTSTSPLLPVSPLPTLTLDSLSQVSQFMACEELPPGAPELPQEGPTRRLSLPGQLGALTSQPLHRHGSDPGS

Take `CC[C@H]1OC(=O)[C@H](C)C2(O)O[C@](C)(C[C@@H](C)CN(C)[C@H](C)[C@@H](O)[C@]1(C)O)[C@H](O[C@@H]1O[C@H](C)CC(N(C)C)[C@H]1O)[C@H]2C` (stereo partly drawn) [Compound 2]: in the data set on collagen arthritis model, the arthritis score entry was “reductions in score”; the “loss in body weight associated with arthritis” value was “reduces loss in body weight”; the paw swelling entry is given as “reductions in score, paw swelling”. Also, the accumulation in organs result in [1] (kidney, liver and spleen, LCMS, oral dosing) was “slightly accumulated in kidney, liver and spleen”. Moreover, the “fraction of the initial value detectable in organs” value in [1] (within 24 h) is “more than 50%”. Besides, the “Jurkat Cell toxicity Normal growth limit” value in the data set with Jurkat lymphocytes was 100 µM. Also, the “TC50 HepG2” value in the data set on HepG2 is reported as 90. For the same compound, in data set [2], the “Cytokine production in J774 cells as % DMSO control, TNFa Normal 50 μM” value is 68 % DMSO control. Further, in the data set on Jurkat, the “TC50 Jurkat” value turned out to be 40. For the same compound, the “gross toxic effect / weight gain” value in [3] was “continued to gain weight during this period suggesting no gross toxic effect”. In addition, in data set [4], the “Cytokine production in J774 cells as % DMSO control, GM_CSF Cond. 50 μM” value was determined as 160 % DMSO control. Moreover, the “plasma TNF levels” value with plasma TNFalpha was “reduce plasma TNF levels relative to vehicle treated controls”. For the same compound, the IC50 with S. aureus amounted to 1340 µM. Further, in the data set with DSS induced colitis, the diarrhea severity result was “reductions in diarrhea severity”, the mortality result is given as “reduced mortality” and the weight loss result is recorded as “protection against weight loss”. Also, the “Cytokine production in J774 cells as % DMSO control, IL-12 Normal 50 μM” value in [5] came to 42 % DMSO control. The “mutagenic activity (Ames test)” value in “Ames test (mutagenicity)” was “no mutagenic activity”. For the same compound, the “BALF TNFa (% Vehicle) 20 μmol/kg i.n.” value in the data set with BALF TNFa was found to be 75 % Vehicle. Also, the IC50 with E. coli turned out to be 1000 µM. Also, the “hERG inhibition, potency relative to Compound 3” value at hERG is “less potent inhibitor than the commercially available Compound 3”. Also, in the data set with HeLa, the “TC50 HeLa” value is listed as above 100. The “Cytokine production in J774 cells as % DMSO control, IL-10 Normal 50 μM” value in data set [6] is on record as 115 % DMSO control.

In the case of `CC[C@H]1OC(=O)[C@H](C)[C@@H](O)[C@H](C)[C@@H](O[C@@H]2O[C@H](C)C[C@H](N(C)C)[C@H]2O)[C@](C)(O)C[C@@H](C)CN(C)[C@H](C)[C@@H](O)[C@]1(C)O` [decladinosyl azithromycin], the “antibacterial effectiveness, fold less effective than the cladinosylated molecule” value with bacteria is “ca. 5 fold”.

The record behind these values is patent publication US9145436B2 (priority 2010, dated 2015).
